Test results reported in patent US12589087B2, “Enantiomer selective action on neurotransmission” (The Board of Trustees of the Leland Stanford Junior …, priority 2021, dated 2026).
Read-outs that look alike come from different tables or passages of the source.

Experiments:
[1] = tested on: mouse hippocampal slice cultures; test: Kainic acid neurodegeneration in hippocampal slice cultures (propidium iodide); format: cell-based
Method: We employed a standard technique of ex vivo experimentation to determine the efficacy of 2MeGlu, 2MeGln, and 4APA to prevent neurodegeneration. Mouse hippocampal slice cultures were prepared and then exposed to one of the three test compounds at either 5 or 50 μM for one hour. Then media was changed to contain either 2 or 5 μM kanic acid (KA) for 24 hr. […] After 24, the amount of neurodegeneration was assayed with propidium iodide staining. Increasing the dose of KA led to greater neurodegeneration at 5 μM than at 2 μM.

[2] = Metabolism in synaptosomes (GABA shunt, glutamate-glutamine cycle); format: in vitro ADME; conditions: mouse, mouse cerebral synaptosomes; synaptosomes preincubated with 100 μM, normal KRP buffer, 37° C.; read-out: synaptosomal concentration, estimated half life
Method: To each tube, a 5 μL aliquot of a test compound solution (final concentration 100 μM) in Buffer KRP or Buffer KRP alone were added. The samples were incubated for 15 min at 37° C., briefly chilled on ice, and then immediately centrifuged and washed twice by resuspension-centrifugation with Buffer S (0.5 mL). The pellets were then resuspended in Buffer KRP (500 μL). Samples were then immediately centrifuged or incubated for 5, 10, 15, 20, 25 or 30 min at 37° C. and then centrifuged and washed by resuspension-centrifugation with Buffer S (0.5 mL). Resulting pellets were resuspended in 170 μL of 0.1% aqueous formic acid, mixed with 330 μL of ACN.
To each tube, 5 μL of 2MeGlu solution (final concentration 100 μM) in Buffer KRP or Buffer KRP alone were added. The samples were incubated for 15 min at 37° C., briefly chilled on ice, and then immediately centrifuged and washed twice by resuspension-centrifugation with Buffer S (0.5 mL). The pellets were then resuspended in Buffer KRP (200 μL). Samples were then kept on ice or incubated for 10, 20, 30, 40 or 50 min at 37° C. and then chilled on ice. Then all samples were centrifuged, 200 μL of supernatants were collected, and the pellets were suspended in 200 μL of 80% ACN. Supernatants and pellet suspensions were diluted with 250 μL of ACN and 50 μL of 10 μM d5-Glu in water as internal standard.

[3] = tested on: mouse cerebral synaptosomes; test: Potassium-induced neurotransmitter release assay; format: cell-based; conditions: for synaptosome total GABA concentration following preincubation: 100 μM preincubation 15 min 37° C., vehicle 9.5±0.2; for reduction of synaptosome 4APA concentration by K+-induced membrane depolarization: 40 mM K+ vs 5 mM K+, 15 min; for endogenous GABA displaced in synaptosomes: once incorporated into synaptosomes
Method: To each tube, 2.5 μL of a test compound solution (final concentration 100 μM) in Buffer KRP or Buffer KRP alone were added. Samples were incubated for 15 min at 37° C., briefly chilled on ice, and then immediately centrifuged and washed twice with Buffer KRP. The resulting pellets were then resuspended in either Buffer KRP (500 μL) or Buffer K-KRP (500 μL). Samples were immediately centrifuged or incubated for 5, 10 or 15 min at 37° C., then centrifuged and washed with Buffer KRP. Resulting pellets were resuspended in 400 μL of 60% ACN containing 2.5 μM Glu-d5 and 2.5 μM Gln-d5 as internal standards.
(§1) Synaptosome uptake and high potassium-induced release assays were performed as described in Example 1. Uptake assays used 250 μL aliquots of the synaptosome suspension transferred to a pre-chilled 0.8 mL 96 well plate. 5 μL of a test compound solution (0.5 mM; final concentration: 10 μM to compare directly to our previous work was added to each well and incubated at 0° C. or 37° C. After 10, 20 or 30 min, samples were chilled on ice and immediately sedimented (2,500 g for 15 min at 4° C.) and washed with Buffer S (0.5 mL, ×2). Resulting pellets were resuspended in 200 μL of 60% ACN containing 5 μM GABA-d6 and stored at −80° C. until analysis. Potassium-induced release assay used 500 μL aliquots of the synaptosome suspension transferred to pre-chilled microcentrifuge tubes. 2.5 μL of a test compound solution (20 mM; final concentration: 100 μM) in Buffer KRP was added to each tube and incubated for 15 min at 37° C., briefly chilled on ice, and then immediately sedimented (8,000 g for 4 min at 4° C.) and washed with Buffer KRP, followed by centrifugation, twice. The resulting pellets were resuspended in 500 μL of Buffer KRP or Buffer K-KRP and incubated for 5, 10 or 15 min at 37° C., sedimented (8,000 g for 4 min at 4° C.), and washed with Buffer KRP. Resulting pellets were resuspended in 400 μL of 60% ACN containing 2.5 μM GABA-d6 as internal standard and stored at −80° C. until analysis.

[4] = tested on: mouse cerebral synaptosomes; test: Synaptosomal neurotransmitter uptake assay; format: cell-based
Method: To each tube, 5 μL of a test compound solution (final concentration 10 μM) in Buffer KRP or Buffer KRP alone were added. Samples were incubated at 4° C. or 37° C. for 1, 10, or 30 min and then immediately centrifuged and washed twice by resuspension-centrifugation with Buffer S (0.5 mL). Resulting pellets were resuspended in 170 μL of 0.1% aqueous formic acid and mixed with 330 μL of ACN.
96-well plate experiments: 250 μL aliquots of the synaptosome suspension were transferred to two 0.8-mL 96 well plates, one on ice (0° C. samples only) and one in a thermoblock (37° C. samples only), and equilibrated for 10 min. 5 μL of a test compound (0.5 mM; final concentration: 10 μM) in Buffer KRP or Buffer KRP blank were added 10, 20 or 30 min before the incubation termination. “0 min” samples were prepared by placing the test compound solution in a separate pre-chilled V-shape bottom 2-mL 96 well plate; at the end of incubation 200 μL aliquots of all samples were transferred to the 2-mL 96 well plate and centrifuged (2,500 g for 15 min at 4° C.) immediately. The resulting pellets were rinsed with Buffer KRP, followed by centrifugation, twice, then resuspended in 200 μL of 60% ACN containing 2.5 μM Glu-d5 as internal standard and stored at −80° C. until analysis.
as §1

[5] = tested on: C57Bl/6 mice; format: in vivo; conditions: for mortality after single dose: mouse, in vivo; for distance moved in the novel cage: single 100, 300, or 900 mg/kg IP, dose- and time-dependent
Method: Dosing: (R)-2MeGlu (30, 100, 300, or 900 mg/kg), (S)-2MeGlu (30, 100, 300, or 900 mg/kg), rac-2MeGln (30, 100, 300, or 900 mg/kg) and vehicle (PBS) were administered at 10 ml/kg IP dosing volume. Three mice were dosed once with the assigned drug (100, 300, or 900 mg/kg) or vehicle and immediately placed in a new cage for novel cage observation. Subsequently, six mice were dosed once with the assigned drug (30 or 100 mg/kg) or vehicle and tested by SHIRPA, activity chamber, and then hot plate tests.
The mouse was dosed and immediately placed in the center of a clean, Innovive disposable rat cage with bedding (dimensions: 17″L×13.4″W×7.8″H) and allowed to move freely while being tracked automatically. Mice were monitored with Ethovision XT tracking software for the distance moved and average velocity during the 60-minute trial. They were returned to their home cage after the test. A new cage was used for each mouse.
Exploratory behavioral tests were performed exactly as previously described by us using 2-month-old C57Bl/6 male mice, Example 1. First, we assessed safety and tolerability of acute exposure to 4APA enantiomers in 22 mice by novel cage observation at 100, 300, or 900 mg/kg IP compared to vehicle (PBS) IP (n=3 or 4 mice per group without sample calculation, based on our previous study. Next, we evaluated 24 drug naïve mice with a 23-measure battery of neurologic dysfunction in mice (SHIRPA) (Rogers et al., 2001), automated activity chamber assessment, and hot plate latency acutely following 30 or 100 mg/kg IP compared to vehicle IP (n=4 or 5 mice per group). No exclusion criteria were predetermined and no randomization was performed to allocate subjects in the study.

[6] = tested on: Line 61 mice; test: Transgenic α-synuclein mouse model, tapered beam test; format: in vivo
From the text: Line 61 mice overexpress human α-synuclein under control of the mouse Thy-1 promoter. The transgene is X-linked so females have variable transgene expression; for this reason, we focused on male mice. […] Categorical data from the tapered beam task were unblinded and analyzed by X square test (P<0.005).

[7] = target: T1, human glutaminase GLS1 (Homo sapiens, UniProt O94925); test: Catalysis of 2MeGln hydrolysis by GLS1 glutaminase; format: biochemical; conditions: human GLS1
T1 construct: purchased Sigma SRP0516
T1 sequence (O94925 55-669): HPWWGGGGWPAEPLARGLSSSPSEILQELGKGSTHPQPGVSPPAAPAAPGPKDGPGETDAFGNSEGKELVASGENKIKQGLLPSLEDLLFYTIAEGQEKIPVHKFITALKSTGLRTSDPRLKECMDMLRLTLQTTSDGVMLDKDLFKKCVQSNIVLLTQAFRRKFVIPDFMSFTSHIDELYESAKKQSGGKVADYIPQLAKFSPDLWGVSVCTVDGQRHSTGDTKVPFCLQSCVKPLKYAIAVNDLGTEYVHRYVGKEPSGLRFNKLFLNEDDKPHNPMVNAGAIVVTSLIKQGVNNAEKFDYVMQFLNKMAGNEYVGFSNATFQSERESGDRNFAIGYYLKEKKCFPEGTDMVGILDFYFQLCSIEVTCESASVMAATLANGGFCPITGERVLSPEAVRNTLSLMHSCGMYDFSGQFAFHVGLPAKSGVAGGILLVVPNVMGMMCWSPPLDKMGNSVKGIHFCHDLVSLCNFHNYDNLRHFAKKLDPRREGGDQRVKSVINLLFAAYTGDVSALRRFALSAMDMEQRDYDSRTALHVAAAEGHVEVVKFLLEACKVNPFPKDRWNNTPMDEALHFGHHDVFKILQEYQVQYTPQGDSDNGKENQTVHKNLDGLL
Method: The procedure was adapted from an existing protocol. To a reaction mixture in a 1.5 mL microcentrifuge tube containing 10 mM rac-2MeGln or L-Gln-^13C2 in 100 mM phosphate pH 7.4 buffer made in 20% atom ^18O water, recombinant GLS1 (final concentration: 5 ng/mL) was added. The tubes were incubated in a preheated thermomixer at 37° C. and periodically shaken at 600 rpm (30 s on, 30 s off). 5 μL aliquots were collected in triplicate every 5 min and immediately diluted with 195 μL of cold 60% ACN containing 10 μM Glu-d5 and Gln-d5 as internal standards in a 96 well plate. After collecting all samples, the plate was shaken at 1000 rpm for 5 min at room temperature, and then stored at −80° C. Before analysis the plate was thawed and 10 μL aliquots of the extracted reaction mixtures were diluted with 190 μL of 90% acetonitrile.
The quantification of the newly formed 2MeGlu in the presence of the preexisting trace amounts was performed in the following way. Peak area ratio of Glu-^13C2 to Glu-^13C2^18O was calculated in all samples containing Glu-^13C2. The mean ratio value was then applied to calculate the hypothetical peak area of the newly formed 2MeGlu based on the directly measured 2MeGlu-^18O peak area. The ratio of the newly formed 2MeGlu peak area and the total 2MeGlu peak area was applied to calculate the concentration of the newly formed 2MeGlu from the total 2MeGlu concentration determined directly using the calibration curve.

| Compound | synaptosome total GABA concentration following preincubation [3] [nmol/mg protein] | reduction of synaptosome 4APA concentration by K+-induced membrane depolarization [3] | endogenous GABA displaced in synaptosomes [3] | synaptosome concentration, % of (R)-4APA ([4]; 10 μM, 30 min at 37° C.) [%] | mortality after single dose [5] | distance moved in the novel cage [5] | other results |
| --- | --- | --- | --- | --- | --- | --- | --- |
| CC(N)(CCC(=O)O)C(=O)O (racemic) [rac-2MeGlu, rac-2-Methylglutamic acid] |  |  |  |  |  |  | reduction of neurodegeneration ([1]; 50 μM compound, lower dose of KA (2 μM)): approximately 50%; neuroprotection at the higher dose of KA ([1]; 5 or 50 μM compound, 5 μM KA): Neither dose of 2MeGlu or 2MeGln was neuroprotective; half-life at 100 μM [2]: 21 min |
| CC(N)CCC(=O)O (racemic) [rac-4APA, (rac)-4-Aminopentanoic acid] | 4.4±0.4 | 62.2±8.6% | about 55% | 78.5±3.8 |  |  | synaptosome Glu concentration ([3]; preincubation with compound): not significantly changed; potassium-induced release from synaptosomes ([3]; preloaded with 100 μM for 15 min at 37° C., high-potassium depolarization): high potassium concentration-dependent release; neuroprotection ([1]; 5 or 50 μM compound): not neuroprotective; transport into synaptosomes ([4]; 10 μM substrate, 37° C.): transported into synaptosomes |
| C[C@@H](N)CCC(=O)O [(R)-4APA, (R)-4-aminopentanoic acid] | 3.8±0.5 | 55.3±6.8% | about 55% |  | no mouse died | significantly decreased | time post injection until not significantly different from vehicle, novel cage ([5]; 300 mg/kg IP): 13 min; time post injection until not significantly different from vehicle, novel cage ([5]; 900 mg/kg IP): 42 min; body weight or deaths ([6]; 5 or 50 mg/kg/d IP, seven days): no change in body weight or deaths; motor function, tapered beam ([6]; 7 days IP, high dose (50 mg/kg/d) S-2MeGlu, either dose (5 or 50 mg/kg/d) R-4APA): improved motor function similar to WT mice; α-synuclein accumulation in brain by immunohistochemistry vs vehicle ([6]; Line 61 mice): no significant change; synaptosome concentration of 4APA ([4]; 10 μM, 30 min at 37° C.): 9.3±0.6 nmol/mg protein; synaptosome uptake, faster than (S)-4APA ([4]; mouse synaptosomes): 4- to 5 fold |
| C[C@](N)(CCC(N)=O)C(=O)O [(S)-2MeGln, (S)-2-methylglutamine] |  |  |  |  |  |  | substrate of GLS1 (hydrolysis to 2MeGlu) [7]: substrates |
| C[C@H](N)CCC(=O)O [(S)-4APA, (S)-4-aminopentanoic acid] | 6.0±0.6 | did not significantly reduce | approximately 30% | 22.8±0.8 | no mouse died | significantly decreased |  |
